Assay results as given in the OligoGym collection.
HELM strings list units from the 5' end as sugar, base in round brackets, then linkage (d deoxyribose, r ribose, m 2'-O-methyl, p phosphodiester). Strings are as the collection lists them; they lack the last nucleoside at the 3' end of the tested compound. [moe] = 2'-O-(2-methoxyethyl) (MOE); [sp] = phosphorothioate linkage; [m5C] = 5-methylcytosine

These substances were tested against ATXN2 (assay: mouse, dose not given). Conditions: ASO.
In the case of “RNA1{[moe]([m5C])[sp].[moe]([m5C])p.[moe](A)p.[moe](T)p.[moe](A)p.d(A)[sp].d(T)[sp].d([m5C])[sp].d(T)[sp].d([m5C])[sp].d(A)[sp].d(T)[sp].d(T)[sp].d([m5C])[sp].d(T)[sp].[moe]([m5C])p.[moe](A)p.[moe](T)[sp].[moe](A)}$$$$ (last 3' nucleoside missing)”, the 3 h FOB score is reported as 2.25 score 0-7.
Substance “RNA1{[moe]([m5C])[sp].[moe]([m5C])p.[moe](A)p.[moe](T)p.[moe](A)p.d([m5C])[sp].d(G)[sp].d([m5C])[sp].d(G)[sp].d(G)[sp].d(T)[sp].d(G)[sp].d(A)[sp].d(A)[sp].d(T)[sp].[moe](T)p.[moe]([m5C])p.[moe](T)[sp].[moe](G)}$$$$ (last 3' nucleoside missing)” has a 3 h FOB score of 4.5 score 0-7.
“RNA1{[moe]([m5C])[sp].[moe]([m5C])p.[moe](G)p.[moe](G)p.[moe](A)p.d(T)[sp].d(T)[sp].d(G)[sp].d(T)[sp].d(T)[sp].d(T)[sp].d(T)[sp].d([m5C])[sp].d(T)[sp].d(T)[sp].[moe]([m5C])p.[moe](A)p.[moe](T)[sp].[moe](T)}$$$$ (last 3' nucleoside missing)” showed a 3 h FOB score of 1 score 0-7.
“RNA1{[moe]([m5C])[sp].[moe]([m5C])p.[moe](T)p.[moe](A)p.[moe](T)[sp].d([m5C])[sp].d(A)[sp].d(T)[sp].d([m5C])[sp].d(A)[sp].d(T)[sp].d(T)[sp].d(T)[sp].[moe](T)p.[moe]([m5C])p.[moe]([m5C])[sp].[moe](A)}$$$$ (last 3' nucleoside missing)” gave a 3 h FOB score of 1 score 0-7.
With “RNA1{[moe]([m5C])[sp].[moe]([m5C])p.[moe](T)p.[moe](A)p.[moe](T)p.[moe]([m5C])p.d(A)[sp].d(T)[sp].d([m5C])[sp].d(A)[sp].d(T)[sp].d(T)[sp].d(T)[sp].d(T)[sp].d([m5C])[sp].d([m5C])[sp].[moe](A)p.[moe](G)[sp].[moe](G)}$$$$ (last 3' nucleoside missing)” the 3 h FOB score was 1.25 score 0-7.
“RNA1{[moe]([m5C])[sp].[moe]([m5C])p.[moe](T)p.[moe](A)p.[moe](T)p.d([m5C])[sp].d(A)[sp].d(T)[sp].d([m5C])[sp].d(A)[sp].d(T)[sp].d(T)[sp].d(T)[sp].d(T)[sp].d([m5C])[sp].[moe]([m5C])p.[moe](A)p.[moe](G)[sp].[moe](G)}$$$$ (last 3' nucleoside missing)” gave a 3 h FOB score of 5.5 score 0-7.
“RNA1{[moe]([m5C])[sp].[moe]([m5C])p.[moe](T)p.[moe](A)p.d(T)[sp].d([m5C])[sp].d(A)[sp].d(T)[sp].d([m5C])[sp].d(A)[sp].d(T)[sp].d(T)[sp].d(T)[sp].d(T)[sp].[moe]([m5C])p.[moe]([m5C])p.[moe](A)p.[moe](G)[sp].[moe](G)}$$$$ (last 3' nucleoside missing)” showed a 3 h FOB score of 1.75 score 0-7.
For “RNA1{[moe]([m5C])[sp].[moe]([m5C])p.[moe]([m5C])p.[moe](A)p.[moe](A)p.d(A)[sp].d(G)[sp].d(G)[sp].d(G)[sp].d(T)[sp].d(T)[sp].d(A)[sp].d(A)[sp].d(T)[sp].d(T)[sp].[moe](A)p.[moe](G)p.[moe](G)[sp].[moe](A)}$$$$ (last 3' nucleoside missing)”, the 3 h FOB score was 1 score 0-7.
